{
  "source": "patent US20130317054A1",
  "about": "“NEURONAL NICOTINIC AGONIST AND METHODS OF USE” (ABBVIE INC., priority 2012, published 2013)",
  "key": {"[1]": {"tested_on": "clinically stable subjects with schizophrenia", "experiment": "Phase 2a Clinical Study A: Positive and Negative Syndrome Scale (PANSS)", "format": "in vivo, human", "conditions": "ITT or nonsmoker groups, throughout the study", "description": "(§1) A Phase 2a proof-of-concept (POC) study in clinically stable subjects with schizophrenia who were clinically stable and received stable doses of atypical antipsychotic therapy. The study was a Phase 2, multi-center, randomized, double-blind, placebo-controlled, parallel group study designed to evaluate the safety and efficacy of doses of (4s)-4-(5-phenyl-1,3,4-thiadiazol-2-yloxy)-1-azatricyclo[3.3.1.1^3,7]decane (Compound A) in clinically stable male and female subjects (ages 20 to 55, inclusive) with a Diagnostic and Statistical Manual of Mental Disorders—Fourth Edition, Text Revision (DSM-IV-TR) diagnosis of schizophrenia. […] The criteria for clinical stability was determined by a combination of retrospective data (over the 4 months prior to the start of Screening, which will be supported by clinical records, patient, identified responsible contact person, and physician interviews), and prospective data assessed during the Prospective Stabilization Period of 28 to 42 days duration. […]\n(§2) The primary endpoint was the MCCB composite score, and the primary endpoint analysis was the change on the MCCB composite score from baseline to endpoint versus placebo. Other secondary measures included the MCCB domains, the NSA-16, the CANTAB cognition battery (measured at different time points from the MCCB), and the UPSA-2. […]"}, "[2]": {"tested_on": "clinically stable subjects with schizophrenia", "experiment": "Phase 2a Clinical Study A: MATRICS Consensus Cognitive Battery (MCCB)", "format": "in vivo, human", "conditions": "for change from baseline to Week 12 in MCCB composite score (LS mean): ITT analysis, 12 weeks; for MCCB composite LS mean change from baseline to Week 12: subset of nonsmokers", "description": "(§3) A Phase 2a proof-of-concept (POC) study in clinically stable subjects with schizophrenia who were clinically stable and received stable doses of atypical antipsychotic therapy. The study was a Phase 2, multi-center, randomized, double-blind, placebo-controlled, parallel group study designed to evaluate the safety and efficacy of doses of (4s)-4-(5-phenyl-1,3,4-thiadiazol-2-yloxy)-1-azatricyclo[3.3.1.1^3,7]decane (Compound A) in clinically stable male and female subjects (ages 20 to 55, inclusive) with a Diagnostic and Statistical Manual of Mental Disorders—Fourth Edition, Text Revision (DSM-IV-TR) diagnosis of schizophrenia. Psychiatric diagnoses were confirmed using the Mini-International Neuropsychiatric Interview (MINI) version 6.0.0. The criteria for clinical stability was determined by a combination of retrospective data (over the 4 months prior to the start of Screening, which will be supported by clinical records, patient, identified responsible contact person, and physician interviews), and prospective data assessed during the Prospective Stabilization Period of 28 to 42 days duration.\n(§4) The study was a Phase 2, multi-center, randomized, double-blind, placebo-controlled, parallel group study designed to evaluate the safety and efficacy of doses of (4s)-4-(5-phenyl-1,3,4-thiadiazol-2-yloxy)-1-azatricyclo[3.3.1.1^3,7]decane, which is also recognized as Compound A, in treating cognitive deficits in subjects with schizophrenia who were clinically stable and receiving one or two atypical antipsychotic medications. Study drug was administered orally.\n(§5) The study consisted of a screening period of at least 28 and up to 42 days, a 84-day outpatient treatment period, a 14-day post-treatment period, and a post-treatment follow-up period. The screening period consisted of three visits: Screening Visit 1, Screening Visit 2, and Day −1. Upon completion of Day −1 procedures, eligible subjects were randomized through an Interactive Voice Response/Interactive Web-Based (IVR/IWB) system. Subjects were randomized in an equal ratio to one of three treatment groups (placebo, 10 mg Compound A, or 25 mg Compound A).\n(§6) Subjects were randomized in a 1:1:1 ratio with placebo, 10 mg QD Compound A, of 25 mg Compound A. Each subject was instructed to take study drug once-daily in the morning for 12 weeks. Each daily dose was preferably taken with food. The subject and investigator were blinded to the treatment assignment throughout the study. The treatment assignments for the study subjects are shown below in Table 1.\n(§7) The primary endpoint was the MCCB composite score, and the primary endpoint analysis was the change on the MCCB composite score from baseline to endpoint versus placebo. Other secondary measures included the MCCB domains, the NSA-16, the CANTAB cognition battery (measured at different time points from the MCCB), and the UPSA-2. The Positive and Negative Syndrome Scale (PANSS) was included to document stability in schizophrenia symptomatology.\nThe MCCB was developed by a consortium of academic, industry, the Food and Drug Administration (FDA) and National Institute of Mental Health (NIMH) members called Measurement and Treatment Research to Improve Cognition in Schizophrenia (MATRICS). The battery was established in a multiple phase process that involved experts identifying cognitive tests in the literature that had shown deficits in schizophrenia, use of factor analysis to identify key domains of cognitive deficits in schizophrenia, and then empirically identifying the best tests for each domain based on reliability, validity and feasibility for use in clinical trials. The FDA has endorsed the MCCB as an appropriate outcome measure for Phase 3 CDS trials. […]"}, "[3]": {"tested_on": "clinically stable subjects with schizophrenia", "experiment": "Phase 2a Clinical Study A: CANTAB cognition battery", "format": "in vivo, human", "conditions": "taken at different time points from the MCCB", "description": "as §1, §2"}, "[4]": {"tested_on": "clinically stable subjects with schizophrenia", "experiment": "Phase 2a Clinical Study A: disposition of subjects and tolerability", "format": "in vivo, human", "conditions": "for Primary reason for discontinuation: Adverse event: percentages based on treated subjects", "description": "as §3, §4, §5, §6\nSubjects completed 2 visits during the screening period. […]"}, "[5]": {"tested_on": "clinically stable subjects with schizophrenia", "experiment": "Phase 2a Clinical Study A: UCSD Performance-Based Skills Assessment-2 (UPSA-2)", "format": "in vivo, human", "conditions": "for UPSA-2 change from baseline score: placebo 2.6, not statistically significant", "description": "as §3, §4, §5, §6, §7\nThe UCSD Performance-Based Skills Assessment-2 (UPSA-2) is a role-play test designed for subjects with schizophrenia to evaluate cognitive functional capacity in six selected domains of basic living skills. These areas include Organization/Planning, Financial Skills, Communication, Transportation, Household Management, and Medication Management. […] Scores were obtained for each subtest, and the total score was the sum of these subtests. […] The UPSA-2 required an average of 30 minutes to administer. The UPSA-2 was administered in on Days 14, 28, 56, 84 and 98."}, "[6]": {"tested_on": "clinically stable subjects with schizophrenia", "experiment": "Phase 2a Clinical Study A: NSA-16 (negative symptoms)", "format": "in vivo, human", "description": "as §1, §2"}, "[7]": {"conditions": "in vivo; cited from earlier work"}, "[8]": {"tested_on": "patients with schizophrenia", "conditions": "cited from earlier work"}, "[9]": {"tested_on": "patients with schizophrenia", "conditions": "cigarettes, sprays, patch; cited from earlier work"}, "[10]": {"conditions": "subset of smoking subjects, both dose groups (10 mg, 25 mg)"}, "[11]": {"conditions": "nonsmokers, dose group not stated"}},
  "data": [
    {"compound": "c1ccc(-c2nnc(O[C@@H]3C4CC5C[C@H]3C[N@](C5)C4)s2)cc1", "note": "[Compound A, (4s)-4-(5-phenyl-1,3,4-thiadiazol-2-yloxy)-1-azatricyclo[3.3.1.1^3,7]decane]", "values": [
      {"measurement": "changes in the PANSS scores", "setting": "[1]", "result": "no significant changes"},
      {"measurement": "change from baseline to Week 12 in MCCB composite score (LS mean)", "setting": "[2]; 10 mg QD oral, P=0.088 versus placebo (LS mean +0.50)", "result": "+1.79"},
      {"measurement": "change from baseline to Week 12 in MCCB composite score (LS mean)", "setting": "[2]; 25 mg QD oral, P=0.067 versus placebo (LS mean +0.50)", "result": "+2.02"},
      {"measurement": "effect on cognition in subjects with schizophrenia (summary)", "setting": "[2]; driven by verbal learning, working memory and attention, consequence of the effect in nonsmoking subjects", "result": "procognitive effect"},
      {"measurement": "MCCB social cognition domain, mean values across treatment groups", "setting": "[2]; nonsmokers, 10 mg, 25 mg and placebo", "result": "similar"},
      {"measurement": "MCCB all other domains with the exception of reasoning and problem solving, effect versus placebo", "setting": "[2]; nonsmokers, active treatment groups, monotonic dose relationship", "result": "magnitude of effect was greater"},
      {"measurement": "MCCB composite LS mean change from baseline to Week 12", "setting": "[2]; 10 mg, P=0.021 compared to placebo (−0.7)", "result": "+2.1"},
      {"measurement": "MCCB composite LS mean change from baseline to Week 12", "setting": "[2]; 25 mg, P=0.001 compared to placebo (−0.7)", "result": "+4.5"},
      {"measurement": "change from baseline scores on the MCCB composite and domain scores", "setting": "[2]; [10]", "result": "markedly similar to placebo"},
      {"measurement": "Results of the CANTAB battery", "setting": "[3]", "result": "markedly similar to those of the MCCB"},
      {"measurement": "Primary reason for discontinuation: Adverse event", "setting": "[4]; 10 mg QD", "result": "4 (5.8) n (%)"},
      {"measurement": "Primary reason for discontinuation: Adverse event", "setting": "[4]; 25 mg QD", "result": "3 (4.5) n (%)"},
      {"measurement": "Primary reason for discontinuation: Adverse event", "setting": "[4]; Compound A overall", "result": "7 (5.1) n (%)"},
      {"measurement": "tolerability in subjects with schizophrenia", "setting": "[4]; doses up to 25 mg QD, including 10 mg QD and 25 mg QD", "result": "well tolerated"},
      {"measurement": "UPSA-2 composite score", "setting": "[5]; ITT, either dose group (10 mg, 25 mg)", "result": "No significance"},
      {"measurement": "UPSA-2 change from baseline score", "setting": "[5]; nonsmokers, 10 mg", "result": 1.4},
      {"measurement": "UPSA-2 change from baseline score", "setting": "[5]; nonsmokers, 25 mg", "result": 3.9},
      {"measurement": "UPSA-2 effect size (Cohen's d) based on the raw data", "setting": "[5]; [11]", "result": 0.13},
      {"measurement": "UPSA-2 model-based effect size", "setting": "[5]; [11]", "result": 0.23},
      {"measurement": "change from baseline scores on the UPSA-2", "setting": "[5]; [10]", "result": "markedly similar to placebo"},
      {"measurement": "effect on negative symptoms of schizophrenia (summary)", "setting": "[6]; human, in vivo", "result": "No effect"},
      {"measurement": "NSA-16 analyses", "setting": "[6]; nonsmoking subjects and subjects with predominant negative symptoms", "result": "did not reveal statistical significance"}
    ]},
    {"compound": "O=C(N[C@H]1CN2CCC1CC2)c1cc2cccc(Cl)c2s1", "note": "[EVP-6124, N-[(3R)-1-azabicyclo[2.2.2]oct-3-yl]-7-chloro-1-benzothiophene-2-carboxamide]", "values": [
      {"measurement": "effect on the CogState test battery", "setting": "[7]", "result": "improvements"}
    ]},
    {"compound": "COc1ccc(/C=C2\\CCCN=C2c2cccnc2)c(OC)c1", "note": "[GTS-21]", "values": [
      {"measurement": "effect on the Repeatable Battery for the Assessment of Neuropsychological Status total scale", "setting": "[8]", "result": "positive effects"}
    ]},
    {"compound": "CN1CCCC1c1cccnc1", "note": "(stereo not shown) [Nicotine, nicotine]", "values": [
      {"measurement": "neuropsychological performance", "setting": "[9]", "result": "improved"}
    ]}
  ]
}
